Results from patent US9410152B2, “Use of microrna molecules to influence skin pigmentation” (CHANEL PARFUMS BEAUTE, priority 2011, dated 2016).
“Also recorded” adds a separate entry of the source.

What was measured:
Assay type in all cases: cell-based, human
MNT-1 cells [1] = test: Measurement of the relative melanin concentration (absorbance at 470 nm of protein lysates); conditions: 50 nM mimetic, day 12, relative to transfection control cel-miR-239b (miCtrl), normalized to protein
Method: (§1) 4×10^5 MNT-1 cells were seeded per well in a 6-well plate (#353046, Falcon) on day-1. On day 0, the cells were transfected with 50 nM of mimetic of the miRNAs (hsa-mir-137 # C-300604-07-005, hsa-mir-7 # C-300547-05-0005, hsa-mir-330-5p # C-301082-01-0005, negative control # NC-002000-01-05, Dharmacon), using 5 μL of Lipofectamine 2000 (#1668-019, Invitrogen). On day 1, the medium was changed. On day 3, the cells were trypsinized and seeded at 4×10^5 cells per well. On day 4, the cells were transfected again with 50 nM of mimetic of the miRNAs (see day 0). On day 5, the medium was changed. On day 7, the cells were trypsinized and seeded at 4×10^5 cells per well. On day 8, the cells were transfected with 50 nM of mimetic of the miRNAs (see day 0). On day 9, the medium was changed. On day 10, the cells were trypsinized and divided into two (from one by six wells to two by six wells). On day 12, one six-well plate was used for lysis of the RNA and the other for lysis of the proteins. As positive control of depigmentation, MNT-1 cells were incubated with 3.5 mM of kojic acid (Sigma K3125-5G) for 12 days. The cells were distributed as described and the kojic acid was renewed with the medium every 4 days. The percentage inhibition of the kojic acid is of the order of 10%.
On day 12, the cells were washed in PBS twice and lysed in 75 μL/well of a 6-well dish of lysis buffer for the RIPA proteins. The protein lysates were transferred to 1.5-ml Eppendorf tubes and vortexed lightly to homogenize the solution before putting the tube on ice or for storage at −80° C. 2 μL of protein lysate was used for measuring the absorbance of the melanin at 470 nm using the NanoVue spectrophotometer (GE Healthcare). The protein lysate of the unpigmented XB2 keratinocytes was used as calibrator sample (reference=0). To detect the relative quantity of melanin, all the samples were compared with the transfection control sample (miCtrl). The absorbance at 470 nm of the sample miCtrl was fixed at 1 as reference. In addition, the melanin absorption at 470 nm was normalized taking into account the concentration of proteins of each sample relative to miCtrl.

MNT-1 cells [2] = test: Overall pigmentation levels (photographs of protein lysates on day 12); conditions: 50 nM mimetic, 12 days, relative to negative control, photographs not shown
Method: as §1, with “10%. […] The XB2 keratinocytes serve as control for the unpigmented cells. […] As positive control of depigmentation, the MNT-1 cells were treated with kojic acid.” for “10%.”

mRNA TYR = test: qRT-PCR mRNA expression of TYR; conditions: MNT-1 cells, 50 nM mimetic, day 12, relative to cel-miR-239b, ΔΔCt
Method: 4×10^5 MNT-1 cells were seeded per well in a 6-well plate (#353046, Falcon) on day-1. On day 0, the cells were transfected with 50 nM of mimetic of the miRNAs (hsa-mir-137 # C-300604-07-005, hsa-mir-7 # C-300547-05-0005, hsa-mir-330-5p # C-301082-01-0005, negative control # NC-002000-01-05, Dharmacon), using 5 μL of Lipofectamine 2000 (#1668-019, Invitrogen). On day 1, the medium was changed. On day 3, the cells were trypsinized and seeded at 4×10^5 cells per well. On day 4, the cells were transfected again with 50 nM of mimetic of the miRNAs (see day 0). On day 5, the medium was changed. On day 7, the cells were trypsinized and seeded at 4×10^5 cells per well. On day 8, the cells were transfected with 50 nM of mimetic of the miRNAs (see day 0). On day 9, the medium was changed. On day 10, the cells were trypsinized and divided into two (from one by six wells to two by six wells). On day 12, one six-well plate was used for lysis of the RNA and the other for lysis of the proteins. As positive control of depigmentation, MNT-1 cells were incubated with 3.5 mM of kojic acid (Sigma K3125-5G) for 12 days. The cells were distributed as described and the kojic acid was renewed with the medium every 4 days. The percentage inhibition of the kojic acid is of the order of 10%. 700 μL of Qiazol lysis buffer (Qiagen) was added per well of a six-well dish after washing the cells twice with PBS. The total RNA was isolated using the miRNeasy Mini kit (Qiagen) according to the manufacturer's protocol. The total RNA was eluted in 30 μl of water without RNAse. The concentration of RNA was measured using the NanoVue spectrophotometer (GE Healthcare). 1 μg of total RNA was reverse-transcribed using the MLV RT-Enzyme system (Invitrogen) in 60 μL of reaction to produce the corresponding cDNA. Real-time PCR was performed using the IQTM SYBR® Green supermix (Biorad) (final reaction volume of 25 μL: 23 μL of Mix Master and 2 μL of cDNA). The thermocycling conditions ([…], Biorad) were as follows: 95° C. for 90 s, and 40 cycles at 95° C. for 30 s, 60° C. for 60 s and 95° C. for 10 s. The concentrations of primers and the sequences are given in Table 5 below: The relative quantity was evaluated using the ΔΔCt comparative method. Briefly, this method compares the quantity of expression of the target gene relative to an endogenous control TBP, within a sample for normalizing the expression. Within a group of samples, a suitable sample is selected as the calibrator sample ([…]). Each sample is then compared with a designated reference to give the relative expression of the target gene relative to this reference sample.

| Substance | relative levels of melanin (absorbance at 470 nm) (MNT-1 cells [1]) | overall pigmentation levels (MNT-1 cells [2]) | overall pigmentation levels (MNT-1 cells [2]; listed as miR-7) | levels of mRNA TYR (mRNA TYR) | levels of mRNA TYR (mRNA TYR; listed as miR-7) |
| --- | --- | --- | --- | --- | --- |
| hsa-miR-7: mimetic of miRNA hsa-mir-7 (Dharmacon C-300547-05-0005); mature hsa-miR-7-5p sequence SEQ ID NO: 2 (UGGAAGACUAGUGAUUUUGUUGU; commercial mimic, chemistry not given here; listed as Homo sapiens) | slight increase | do not show a significant reduction | do not show any significant effect | decreased | appears to reduce |
| hsa-miR-137: mimetic of miRNA hsa-mir-137 (Dharmacon C-300604-07-005); mature sequence SEQ ID NO: 3 (UUAUUGCUUAAGAAUACGCGUAG; commercial mimic, chemistry not given here; listed as Homo sapiens) | reduction; also recorded: decrease in melanin | significant reduction | – | decreased; also recorded: significantly reduced | – |
| hsa-miR-330-5p: mimetic of miRNA hsa-mir-330-5p (Dharmacon C-301082-01-0005); mature sequence 5'-UCUCUGGGCCUGUGUCUUAGGC-3' (SEQ ID NO: 1) (UCUCUGGGCCUGUGUCUUAGGC; mimic duplex, passenger strand not given here; listed as Homo sapiens) | reduction; also recorded: decrease in melanin | significant reduction | – | decreased; also recorded: appears to reduce | – |
